From patent US8324250B2 (Hoffmann-La Roche Inc., priority 2009, dated 2012) come the findings set out here.

The experiment addresses T1, recombinant human NK3 receptor (Homo sapiens, UniProt P29371).
T1 construct: expressed in transfected cells; host or cells: HEK293 cells (transient expression), membranes
T1 sequence (P29371 1-465): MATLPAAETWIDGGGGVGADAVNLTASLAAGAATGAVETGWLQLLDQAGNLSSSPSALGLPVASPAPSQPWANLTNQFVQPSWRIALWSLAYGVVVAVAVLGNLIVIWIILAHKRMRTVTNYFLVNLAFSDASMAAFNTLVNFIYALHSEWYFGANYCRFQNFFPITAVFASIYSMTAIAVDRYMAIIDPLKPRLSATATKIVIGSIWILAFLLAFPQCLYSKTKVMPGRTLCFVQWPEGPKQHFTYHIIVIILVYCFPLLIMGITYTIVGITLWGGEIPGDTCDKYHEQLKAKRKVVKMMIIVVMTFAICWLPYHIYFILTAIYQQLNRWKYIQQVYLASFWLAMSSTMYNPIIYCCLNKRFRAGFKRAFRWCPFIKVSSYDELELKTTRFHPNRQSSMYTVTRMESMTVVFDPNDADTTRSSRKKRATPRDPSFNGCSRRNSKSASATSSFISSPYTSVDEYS
Put plainly: [3H]SR142801 competition binding assay. The conditions noted are these: membranes from HEK293 cells transiently expressing recombinant human NK3 receptor; [3H]SR142801 radioligand; 75 min at RT; Ki by Cheng-Prussoff; read-out: Data Ki (hNK-3 receptor affinity). The essentials: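 Membranes from HEK293 cells transiently expressing the receptor, 5 μg protein/well, in 50 mM Tris-HCl pH 7.4 with 4 mM MnCl2, 1 μM phosphoramidon, 0.1% BSA; nonspecific binding defined with 10 μM SB222200. Filtration and scintillation counting; IC50 from Hill fit, Ki by Cheng-Prussoff using saturation-derived KD, duplicates.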

The Ki is the dissociation constant of the complex between target and ligand, obtained from inhibition or displacement. Take `C[C@H](NC(=O)C1(c2ccccc2)CCN(C(=O)N2CCC(N3CCSCC3)CC2)CC1)c1ccc(F)cc1` [Example 222, 4-Phenyl-1-(4-thiomorpholin-4-yl-piperidine-1-carbonyl)-piperidine-4-carboxylic acid [(S)-1-(4-fluoro-phenyl)-ethyl]-amide]: the Ki was 0.01 µM.

On to `CC(C)C(NC(=O)C1(c2ccc(F)cc2)CCN(C(=O)N2CCN(c3ccc(F)cc3)CC2)CC1)c1ccc(F)cc1` (stereo not drawn) [Example 175, 4-(4-Fluoro-phenyl)-1-[4-(4-fluoro-phenyl)-piperazine-1-carbonyl]-piperidine-4-carboxylic acid [1-(4-fluoro-phenyl)-2-methyl-propyl]-amide], for which the Ki was 0.048 µM. With `Cc1nnc(C)n1C1CCN(C(=O)N2CCC(C(=O)N[C@@H](C)c3ccccc3)(c3ccccc3)CC2)CC1` [Example 220, 1-[4-(3,5-Dimethyl-[1,2,4]triazol-4-yl)-piperidine-1-carbonyl]-4-phenyl-piperidine-4-carboxylic acid ((S)-1-phenyl-ethyl)-amide] the figure was 0.0639 µM; with `O=C(N1CCN(c2ccc(F)cc2)CC1)N1CCC(C(=O)NC(c2ccc(F)cc2)C(F)(F)F)(c2ccc(F)cc2)CC1` (stereo not drawn) [Example 176, 4-(4-Fluoro-phenyl)-1-[4-(4-fluoro-phenyl)-piperazine-1-carbonyl]-piperidine-4-carboxylic acid [2,2,2-trifluoro-1-(4-fluoro-phenyl)-ethyl]-amide], 0.077 µM.

For the molecule `O=C(c1ccc(-c2ccc(F)cc2)cc1)N1CCC(C(=O)NC(c2ccc(F)cc2)C(F)(F)F)(c2ccc(F)cc2)CC1` (stereo not drawn) [Example 146, 1-(4′-Fluoro-biphenyl-4-carbonyl)-4-(4-fluoro-phenyl)-piperidine-4-carboxylic acid [2,2,2-trifluoro-1-(4-fluoro-phenyl)-ethyl]-amide], the Ki is 0.036 µM.

Take `C[C@H](NC(=O)C1(c2ccccc2)CCN(C(=O)N2CCN(c3ccc(Cl)cc3)CC2)CC1)c1ccccc1` [Example 219, 1-[4-(4-Chloro-phenyl)-piperazine-1-carbonyl]-4-phenyl-piperidine-4-carboxylic acid ((S)-1-phenyl-ethyl)-amide]: the Ki is 0.0125 µM. Take `C[C@H](NC(=O)C1(c2ccccc2)CCN(C(=O)c2ccc(-c3ccc(F)cc3)cc2)CC1)c1ccccc1` [Example 54, 1-(4′-Fluoro-biphenyl-4-carbonyl)-4-phenyl-piperidine-4-carboxylic acid ((S)-1-phenyl-ethyl)-amide]: the inhibition constant Ki amounted to 0.0072 µM. Turning to `Cc1noc(-c2ccc(C(=O)N3CCC(C(=O)N[C@@H](C)c4ccc(F)cc4)(c4ccc(F)cn4)CC3)cc2)n1` [Example 126, 5-Fluoro-1′-[4-(3-methyl-[1,2,4]oxadiazol-5-yl)-benzoyl]-2′,3′,5′,6′-tetrahydro-1′H-[2,4′]bipyridinyl-4′-carboxylic acid [(S)-1-(4-fluoro-phenyl)-ethyl]-amide], the Ki turned out to be 0.0937 µM. With `C[C@H](NC(=O)C1(c2ccccc2)CCN(C(=O)N2CCC(N3CCSCC3)CC2)CC1)c1ccccc1` [Example 218, 4-Phenyl-1-(4-thiomorpholin-4-yl-piperidine-1-carbonyl)-piperidine-4-carboxylic acid ((S)-1-phenyl-ethyl)-amide] the figure was 0.0052 µM; with `C[C@H](NC(=O)C1(c2ccccc2)CCN(C(=O)N2CCC(N3CCCCC3=O)CC2)CC1)c1ccccc1` [Example 216, 1-(2-Oxo-[1,4′]bipiperidinyl-1′-carbonyl)-4-phenyl-piperidine-4-carboxylic acid ((S)-1-phenyl-ethyl)-amide], 0.0172 µM. On to `C[C@H](NC(=O)C1(c2ccccc2)CCN(C(=O)c2ccc(-c3ccccc3)cc2)CC1)c1ccccc1` [Example 2, 1-(Biphenyl-4-carbonyl)-4-phenyl-piperidine-4-carboxylic acid ((S)-1-phenyl-ethyl)-amide], for which the Ki was determined as 0.0229 µM. Regarding `C[C@H](NC(=O)C1(c2ccccc2)CCN(C(=O)N2CCN(c3cc(C#N)ccn3)CC2)CC1)c1ccccc1` [Example 225, 1-[4-(4-Cyano-pyridin-2-yl)-piperazine-1-carbonyl]-4-phenyl-piperidine-4-carboxylic acid ((S)-1-phenyl-ethyl)-amide], the Ki was 0.0506 µM. As for `Cc1noc(-c2ccc(C(=O)N3CCC(C(=O)N[C@@H](C)C4CCCCC4)(c4ccc(F)cc4)CC3)cc2)n1` [Example 90], the Ki is 0.0026 µM. As for `Cc1noc(-c2ccc(C(=O)N3CCC(C(=O)NC(c4ccc(F)cc4)C(F)(F)F)(c4ccc(F)cc4)CC3)cc2)n1` (stereo not drawn) [Example 200, 4-(4-Fluoro-phenyl)-1-[4-(3-methyl-[1,2,4]oxadiazol-5-yl)-benzoyl]-piperidine-4-carboxylic acid [2,2,2-trifluoro-1-(4-fluoro-phenyl)-ethyl]-amide], the Ki was 0.015 µM. Consider `C[C@H](NC(=O)C1(c2ccccc2)CCN(C(=O)c2ccc(-c3ncccn3)cc2)CC1)c1ccccc1` [Example 47, 4-Phenyl-1-(4-pyrimidin-2-yl-benzoyl)-piperidine-4-carboxylic acid ((S)-1-phenyl-ethyl)-amide], for which the Ki worked out at 0.0247 µM. For the molecule `C[C@H](NC(=O)C1(c2ccccc2)CCN(C(=O)c2ccc(-n3cccc3)cc2)CC1)c1ccccc1` [Example 18, 4-Phenyl-1-(4-pyrrol-l-yl-benzoyl)-piperidine-4-carboxylic acid ((S)-1-phenyl-ethyl)-amide], the Ki stood at 0.0966 µM.

For the molecule `C[C@H](NC(=O)C1(c2ccccc2)CCN(C(=O)c2ccc(-c3ccc(Cl)c(Cl)c3)cc2)CC1)c1ccccc1` [Example 4, 1-(3′,4′-Dichloro-biphenyl-4-carbonyl)-4-phenyl-piperidine-4-carboxylic acid ((S)-1-phenyl-ethyl)-amide], the inhibition constant (Ki) amounted to 0.0196 µM. Consider `Cc1noc(-c2ccc(C(=O)N3CCC(C(=O)N(C)Cc4ccc(F)cc4)(c4ccccc4)CC3)cc2)n1` [Example 105, 1-[4-(3-Methyl-[1,2,4]oxa-diazol-5-yl)-benzoyl]-4-phenyl-piperidine-4-carboxylic acid (4-fluoro-benzyl)-methyl-amide], for which the Ki came out at 0.0052 µM. With `C[C@H](NC(=O)C1(c2ccccc2)CCN(C(=O)N2CCN(c3ccc(S(C)(=O)=O)cc3F)CC2)CC1)c1ccccc1` [Example 211, 1-[4-(2-Fluoro-4-methanesulfonyl-phenyl)-piperazine-1-carbonyl]-4-phenyl-piperidine-4-carboxylic acid ((S)-1-phenyl-ethyl)-amide], the Ki stood at 0.0294 µM. As for `C[C@H](NC(=O)C1(c2ccccc2)CCN(C(=O)c2cc(-c3ccc(F)cc3)no2)CC1)c1ccccc1` [Example 62, 1-[3-(4-Fluoro-phenyl)-isoxazole-5-carbonyl]-4-phenyl-piperidine-4-carboxylic acid ((S)-1-phenyl-ethyl)-amide], the Ki was 0.0635 µM. Turning to `Cc1noc(-c2ccc(C(=O)N3CCC(C(=O)NC(c4ccc(F)cc4)C(C)C)(c4ccc(F)cc4)CC3)cc2)n1` (stereo not drawn) [Example 158, 4-(4-Fluoro-phenyl)-1-[4-(3-methyl-[1,2,4]oxadiazol-5-yl)-benzoyl]-piperidine-4-carboxylic acid [1-(4-fluoro-phenyl)-2-methyl-propyl]-amide], the Ki came out at 0.011 µM. Turning to `C[C@H](NC(=O)C1(c2ccccc2)CCN(C(=O)N2CCN(c3ccc(Cl)cn3)CC2)CC1)c1ccccc1` [Example 206, 1-[4-(5-Chloro-pyridin-2-yl)-piperazine-1-carbonyl]-4-phenyl-piperidine-4-carboxylic acid ((S)-1-phenyl-ethyl)-amide], the Ki amounted to 0.0798 µM. For `C[C@H](NC(=O)C1(c2ccccc2)CCN(C(=O)c2ccc(N3CCS(=O)(=O)CC3)cc2)CC1)c1ccc(F)cc1` [Example 78, 1-[4-(1,1-Dioxo-1λ6-thiomor-pholin-4-yl)-benzoyl]-4-phenyl-piperidine-4-carboxylic acid [(S)-1-(4-fluoro-phenyl)-ethyl]-amide], the Ki was found to be 0.0118 µM. Under `CCc1nc(-c2ccc(C(=O)N3CCC(C(=O)N[C@@H](C)c4ccccc4)(c4ccccc4)CC3)cc2)no1` [Example 71, 1-[4-(5-Ethyl-[1,2,4]oxa-diazol-3-yl)-benzoyl]-4-phenyl-piperidine-4-carboxylic acid ((S)-1-phenyl-ethyl)-amide] stands 0.0284 µM. As to `C[C@H](NC(=O)C1(c2ccccc2)CCN(C(=O)c2ccc(N3CCOCC3)nc2)CC1)c1ccccc1` [Example 10, 1-(6-Morpholin-4-yl-pyridine-3-carbonyl)-4-phenyl-piperidine-4-carboxylic acid ((S)-1-phenyl-ethyl)-amide], the inhibition constant (Ki) was 0.0768 µM. Turning to `CC[C@H](NC(=O)C1(c2ccccc2)CCN(C(=O)N2CCN(c3ccc(F)cc3)CC2)CC1)c1ccccc1` [Example 231, 1-[4-(4-Fluoro-phenyl)-piperazine-1-carbonyl]-4-phenyl-piperidine-4-carboxylic acid ((S)-1-phenyl-propyl)-amide], the Ki amounted to 0.0034 µM. Regarding `C[C@H](NC(=O)C1(c2ccccc2)CCN(C(=O)c2ccc(N3CCN(C)CC3)cc2)CC1)c1ccccc1` [Example 14, 1-[4-(4-Methyl-piperazin-1-yl)-benzoyl]-4-phenyl-piperidine-4-carboxylic acid ((S)-l-phenyl-ethyl)-amide], the Ki stood at 0.0981 µM.
